Results: paper PMC11500415, “Chemical inhibition of stomatal differentiation by perturbation of the master-regulatory bHLH heterodimer via an ACT-Like domain” (Nature Communications, 2024)
Values joined by “and” are separate entries in the source; they are usually repeats but may differ in a detail not shown here. Equal values may be shown once.

What was measured:
[1] = target: T1, MUTE_ACTL (Arabidopsis thaliana, UniProt Q9M8K6); assay: ITC direct binding; parameters: species or system A. thaliana
T1 construct: MUTE-ACTL (114-202); made in house; host or cells: E. coli BL21
T1 sequence (Q9M8K6 114-202): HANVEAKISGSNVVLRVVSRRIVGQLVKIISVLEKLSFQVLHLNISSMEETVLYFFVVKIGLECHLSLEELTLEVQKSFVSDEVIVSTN
Description: (§1) A. thaliana SCRM (1-494), ΔNSPCH (98-364), MUTE (1-202), ΔNFAMA (190-414), MUTEΔC (1-114), MUTER133A_R134A, MUTEE162A_E163A, MUTER133A_R134A_E162A_E163A, SCRM-ACTL (405-494), MUTE-ACTL (114-202), SPCH-ACTL (285-364), FAMA-ACTL (306-414), MUTE_ACTLR133A_R134A, MUTE_ACTLE162A_E163A, MUTE_ACTLR133A_R134A_E162A_E163A were cloned into pGEX-4T-1 vector with an N-terminal GST tag and a thrombin cleavage sequence. For protein expression, the constructs were transformed into E. coli strain BL21. For each transformant, a single colony was selected and incubated in 10 ml LB liquid media. The overnight-incubated E. coli suspensions were transferred to 1 L LB medium and incubated at 37 °C for around 2 h until the OD600 reached 0.4–0.6. The isopropyl β-D-1-thiogalactopyranoside ([…] of final concentration) was added to the cultures and the strains were incubated at 22 °C for a further 18 h. GST-fused proteins were purified using glutathione agarose resin. The soluble portion of the cell lysate was loaded onto a GST-Sepharose column. Nonspecifically bound proteins were removed by washing the column with 20 mM Tris pH 8.0, 200 mM NaCl. The bound GST-fused protein was eluted with 10 mm glutathione and 20 mM Tris pH 8.0, 200 mM NaCl. The GST-fused proteins were exchanged with phosphate-buffered saline buffer, and then the solution was treated with 50 μg of thrombin for 10–12 h at 16 ^οC. The GST portion of the protein was cleaved during thrombin digestion, and then the whole solution was reloaded onto the glutathione S-transferase column to obtain pure protein. The purified proteins were further purified by gel filtration on a Superdex-200 (GE) column using fast protein liquid chromatography and phosphate buffer (pH 7.2) as the eluent. The purity of the protein was checked by SDS-PAGE. For detailed lists of oligo DNA and plasmid information, see Supplementary Tables 5, 6, respectively.
Binding of the small molecule Stomidazolone (3) to SCRM, MUTE, SPCH, FAMA, MUTEΔC, MUTE_ACTL, SCRM_ACTL, SPCH_ACTL and FAMA_ACTL, MUTER133A_R134A, MUTEE162A_E163A, MUTER133A_R134A_E162A_E163A, as well as SCRM binding to MUTE in the presence and absence of Stomidazolone (3) / AYSJ1059 (5) /AYSJ1061 (6) was characterized at 30 °C using a Malvern PEAQ-ITC microcalorimeter. All the protein samples were dialyzed overnight using PBS buffer containing 2% DMSO and 1 mM DTT. Stomidazolone was dissolved in PBS buffer containing 2% DMSO and 1 mM DTT. Titrations were performed by injecting 1 × 0.5-μL and 12 × 3-μL or 1 × 0.75-μL and 18 × 2-μL or 1 × 0.2-μL and 25 × 1.3-μL aliquots of 1 mM Stomidazolone / AYSJ1059 / AYSJ1061 to 5-30 μM of protein in PBS buffer pH 7.4, containing 2% DMSO and 1 mM DTT. All titrations were carried out at least twice. The raw data were corrected using buffer and protein controls and analyzed using the software supplied by the manufacturer. See Supplementary Table 3 for details.

[2] = target: T1, MUTE_ACTL; assay: BLI direct binding; parameters: species or system A. thaliana
Description: as §1
The binding affinities of SCRM to MUTE / MUTER133A_R134A / MUTEE162A_E163A / MUTER133A_R134A_E162A_E163A in presence and absence of Stomidazolone (3) and its analogues (AYSJ1059 (5) and AYSJ1061 (6)), and Stomidazolone / AYSJ1059 / AYSJ1061 interactions with GST-tagged SCRM, MUTE, SPCH, FAMA, MUTE ΔACTL, MUTE_ACTL, SCRM_ACTL, SPCH_ACTL and FAMA_ACTL, MUTER133A_134A, MUTEE162A_E163A, MUTER133A_R134A_E162A_E163A were measured using the Octet Red96 system (ForteBio, Pall Life Sciences) following the manufacturer’s protocols. The optical probes coated with anti-GST were first loaded with 500 nM GST tagged proteins before kinetic binding analyses. The experiment was performed in 96-well plates maintained at 30 °C. Each well was loaded with 200 μL reaction volume for the experiment. The binding buffer used in these experiments contained 1× PBS supplemented with 2% DMSO, 0.02% Tween20. […] There was no binding of the analytes to the unloaded probes as shown by the control wells. Binding kinetics to all seven concentrations of the analytes were measured simultaneously using default parameters on the instrument. The data were analyzed using the Octet data analysis software. The association and dissociation curves were fit with the 1:1 homogeneous ligand model. The kobs (observed rate constant) values were used to calculate Kd, with steady-state analysis of the direct binding. See Supplementary Table 3 for details.

[3] = MUTE_ACTL on Anti-GST sensor, Stomid 3.12 µM, rep-1, rep-2

Q: Which results are given for O=C1C(c2ccccc2)=NC(NS(=O)(=O)c2ccccc2)(c2ccccc2)N1S(=O)(=O)c1ccccc1 (stereo not drawn) [Stomidazolone]?
A: driving force of binding to the ACTL domain (in words) ([1]; ITC data): primarily driven by enthalpic interactions; -T△S ([1]; ITC, MUTE_ACTL): 14.4 ± 0.3; △G ([1]; ITC, MUTE_ACTL): -8.1 ± 0.2; △H ([1]; ITC, MUTE_ACTL): -22.5 ± 0.5; Kd ([1]; ITC, MUTE_ACTL, ND = no binding): 9.8 ± 1.3 µM; Kd ([2]; BLI steady state, MUTE_ACTL, read-out: KD (SS)): 13.1 ± 1.3 µM; Response ([2]; BLI, GST-MUTE_ACTL on Anti-GST sensor, Stomid 3.12 µM): 0.126 and 0.163; Response ([2]; BLI, GST-MUTE_ACTL on Anti-GST sensor, Stomid 6.25 µM): 0.271 and 0.242; Response ([2]; BLI, GST-MUTE_ACTL on Anti-GST sensor, Stomid 12.5 µM): 0.425 and 0.391; Response ([2]; BLI, GST-MUTE_ACTL on Anti-GST sensor, Stomid 25 µM): 0.524 and 0.486; Response ([2]; BLI, GST-MUTE_ACTL on Anti-GST sensor, Stomid 50 µM): 0.535 and 0.563; Response ([2]; BLI, GST-MUTE_ACTL on Anti-GST sensor, Stomid 100 µM): 0.611 and 0.632; Response ([2]; BLI, GST-MUTE_ACTL on Anti-GST sensor, Stomid 200 µM): 0.625 and 0.645; RMax ([2]; BLI, sensor at Stomid 3.12 µM): 0.132 and 0.165; Kd ([2]; BLI, sensor at Stomid 3.12 µM, read-out: KD): 11.7 µM; RMax ([2]; BLI, sensor at Stomid 6.25 µM): 0.28 and 0.245; kobs ([2]; BLI, sensor at Stomid 6.25 µM): 0.00155 s⁻¹ and 0.00133 s⁻¹; kon ([2]; BLI, sensor at Stomid 6.25 µM): 4070 M⁻¹ s⁻¹; Kd ([2]; BLI, sensor at Stomid 6.25 µM, read-out: KD): 11.9 µM; RMax ([2]; BLI, sensor at Stomid 12.5 µM): 0.435 and 0.4; Req/Rmax(%) ([2]; BLI, sensor at Stomid 12.5 µM): 49% and 87.1%; kdis ([2]; BLI, sensor at Stomid 12.5 µM): 0.0482 s⁻¹; kon ([2]; BLI, sensor at Stomid 12.5 µM): 4050 M⁻¹ s⁻¹; Kd ([2]; BLI, sensor at Stomid 12.5 µM, read-out: KD): 11.9 µM; RMax ([2]; BLI, sensor at Stomid 25 µM): 0.53 and 0.49; Req/Rmax(%) ([2]; BLI, sensor at Stomid 25 µM): 61.4% and 83.8%; kdis ([2]; BLI, sensor at Stomid 25 µM): 0.0488 s⁻¹; kobs ([2]; BLI, sensor at Stomid 25 µM): 0.00162 s⁻¹ and 0.00294 s⁻¹; kon ([2]; BLI, sensor at Stomid 25 µM): 4070 M⁻¹ s⁻¹; Kd ([2]; BLI, sensor at Stomid 25 µM, read-out: KD): 11.8 µM and 12 µM; RMax ([2]; BLI, sensor at Stomid 50 µM): 0.545 and 0.565; Req/Rmax(%) ([2]; BLI, sensor at Stomid 50 µM): 71.3%; kdis ([2]; BLI, sensor at Stomid 50 µM): 0.0473 s⁻¹; kon ([2]; BLI, sensor at Stomid 50 µM): 4010 M⁻¹ s⁻¹; Kd ([2]; BLI, sensor at Stomid 50 µM, read-out: KD): 11.9 µM and 11.8 µM; RMax ([2]; BLI, sensor at Stomid 100 µM): 0.621 and 0.64; Req/Rmax(%) ([2]; BLI, sensor at Stomid 100 µM): 98.7%; kdis ([2]; BLI, sensor at Stomid 100 µM): 0.0476 s⁻¹; kon ([2]; BLI, sensor at Stomid 100 µM): 4080 M⁻¹ s⁻¹; Kd ([2]; BLI, sensor at Stomid 100 µM, read-out: KD): 12.1 µM and 11.7 µM; RMax ([2]; BLI, sensor at Stomid 200 µM): 0.63 and 0.655; Req/Rmax(%) ([2]; BLI, sensor at Stomid 200 µM): 100%; kdis ([2]; BLI, sensor at Stomid 200 µM): 0.0474 s⁻¹; kobs ([2]; BLI, sensor at Stomid 200 µM): 0.0329 s⁻¹ and 0.0251 s⁻¹; kon ([2]; BLI, sensor at Stomid 200 µM): 4070 M⁻¹ s⁻¹; Kd ([2]; BLI, sensor at Stomid 200 µM, read-out: KD): 12 µM and 11.6 µM; Kd ([2]; BLI, MUTE_ACTL, read-out: KD): 12.2 ± 2.1 µM; RMax [2, 3]: 0.132 and 0.165; Response [2, 3]: 0.126 and 0.163; Kd ([2]; MUTE_ACTL on Anti-GST sensor, Stomid 3.12 µM, rep-1, rep-2, read-out: KD): 11.7 µM; RMax ([2]; MUTE_ACTL on Anti-GST sensor, Stomid 6.25 µM, rep-1, rep-2): 0.28 and 0.245
